Test results reported in ChEMBL document CHEMBL4622904, “The discovery of azetidine-piperazine di-amides as potent, selective and reversible monoacylglycerol lipase (MAGL) inhibitors” (Bioorg Med Chem Lett, 2020).
pIC50: −log10 of the molar value. Calls of active or inactive are those of the source. No cut-off for these calls is given here.

Assays:
Rattus norvegicus [1] = assay: Reversal of complete freund's adjuvant-induced thermal hyperalgesia in po dosed Sprague-Dawley rat model assessed as increase in paw withdrawal latency time pre-exposed to thermal stimuli followed by CFA injection and subsequent compound administration; assay type: functional
[2] = Half life in rat at 10 mg/kg, po; assay type: ADME, organism-based; settings: in vivo
[3] = molecular target: Coagulation factor X (Homo sapiens) (UniProt P00742); assay: Inhibition of factor 10a (unknown origin) at 10 uM relative to control
Chain of Coagulation factor X (Homo sapiens) (P00742 41-179 limits assumed): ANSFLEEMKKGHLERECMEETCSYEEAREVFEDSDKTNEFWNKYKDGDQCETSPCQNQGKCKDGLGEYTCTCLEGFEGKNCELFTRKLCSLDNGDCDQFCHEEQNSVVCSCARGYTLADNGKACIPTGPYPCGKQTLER
Chain of Coagulation factor X (Homo sapiens) (P00742 235-488 limits assumed): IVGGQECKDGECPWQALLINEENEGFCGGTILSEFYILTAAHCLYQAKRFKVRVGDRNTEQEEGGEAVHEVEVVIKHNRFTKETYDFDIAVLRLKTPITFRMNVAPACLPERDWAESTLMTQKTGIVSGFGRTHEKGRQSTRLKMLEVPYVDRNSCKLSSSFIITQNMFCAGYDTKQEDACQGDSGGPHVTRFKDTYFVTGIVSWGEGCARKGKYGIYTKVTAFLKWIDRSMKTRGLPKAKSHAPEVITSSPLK

[4] = Drug concentration in brain of Sprague-Dawley rat at 30 mg/kg, po; assay type: ADME, organism-based; settings: in vivo, read-out: Ct
[5] = Cmax in rat at 10 mg/kg, po; assay type: ADME, organism-based; design: dose 10 mg/kg, route oral; settings: in vivo
[6] = Oral bioavailability in dog at 10 mg/kg; assay type: ADME, organism-based, Canis lupus familiaris; settings: in vivo
[7] = Oral bioavailability in rat at 10 mg/kg; assay type: ADME, organism-based; settings: in vivo
Tryptase (Homo sapiens) = Tryptase (Homo sapiens) (UniProt Q9BZJ3+Q15661+Q9NRR2); assay: Inhibition of tryptase (unknown origin) at 10 uM relative to control; assay type: protein assay
[8] = Drug concentration in blood of Sprague-Dawley rat at 10 mg/kg, po; assay type: ADME, organism-based; settings: in vivo, read-out: Ct
Rattus norvegicus [9] = assay: Effect on 2-AG level in brain of Sprague-Dawley rat 30 mg/kg, po (reference value: 11.96 nmol/g); assay type: functional
[10] = molecular target: Tissue-type plasminogen activator (Homo sapiens) (UniProt P00750); assay: Inhibition of TPA (unknown origin) at 10 uM relative to control
Chain of Tissue-type plasminogen activator (Homo sapiens) (P00750 36-562 limits assumed): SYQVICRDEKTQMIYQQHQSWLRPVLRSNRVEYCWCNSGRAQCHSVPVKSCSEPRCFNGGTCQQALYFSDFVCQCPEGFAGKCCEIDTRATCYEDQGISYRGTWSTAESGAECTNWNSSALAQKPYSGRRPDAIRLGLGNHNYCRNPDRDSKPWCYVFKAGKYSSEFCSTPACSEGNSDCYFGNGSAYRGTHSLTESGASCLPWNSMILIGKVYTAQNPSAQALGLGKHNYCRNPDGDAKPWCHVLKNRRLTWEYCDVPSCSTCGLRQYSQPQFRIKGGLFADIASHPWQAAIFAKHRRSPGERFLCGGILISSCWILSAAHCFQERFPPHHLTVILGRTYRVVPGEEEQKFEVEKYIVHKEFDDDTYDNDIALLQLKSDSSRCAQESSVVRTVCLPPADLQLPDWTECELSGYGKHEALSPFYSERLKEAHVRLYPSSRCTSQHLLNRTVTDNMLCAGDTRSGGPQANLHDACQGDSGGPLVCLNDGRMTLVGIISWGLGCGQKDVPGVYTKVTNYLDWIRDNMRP

Rattus norvegicus [11] = assay: Effect on 2-AG level in brain of Sprague-Dawley rat 1 mg/kg, po (reference value: 11.96 nmol/g); assay type: functional
[12] = Volume of distribution at steady state in rat at 10 mg/kg, po; assay type: ADME, organism-based; settings: in vivo
Cannabinoid receptor 2 = Cannabinoid receptor 2 (Homo sapiens, UniProt P34972); assay: Binding affinity to CB2 receptor (unknown origin); assay type: ADME
Chain of Cannabinoid receptor 2 (P34972 whole entry): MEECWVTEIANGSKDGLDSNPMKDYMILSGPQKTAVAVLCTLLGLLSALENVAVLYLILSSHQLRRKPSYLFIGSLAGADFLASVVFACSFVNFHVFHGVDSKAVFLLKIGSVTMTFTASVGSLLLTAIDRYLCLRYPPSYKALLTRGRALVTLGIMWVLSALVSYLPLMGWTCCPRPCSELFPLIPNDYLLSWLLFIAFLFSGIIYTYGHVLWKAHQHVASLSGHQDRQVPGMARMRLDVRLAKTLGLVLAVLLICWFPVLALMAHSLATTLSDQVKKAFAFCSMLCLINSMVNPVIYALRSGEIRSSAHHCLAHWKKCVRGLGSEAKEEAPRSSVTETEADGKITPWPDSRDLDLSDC

Chymase (Homo sapiens) = molecular target: T1, Chymase (Homo sapiens) (UniProt P23946); assay: Inhibition of chymase (unknown origin) at 10 uM relative to control
T1 sequence (whole entry): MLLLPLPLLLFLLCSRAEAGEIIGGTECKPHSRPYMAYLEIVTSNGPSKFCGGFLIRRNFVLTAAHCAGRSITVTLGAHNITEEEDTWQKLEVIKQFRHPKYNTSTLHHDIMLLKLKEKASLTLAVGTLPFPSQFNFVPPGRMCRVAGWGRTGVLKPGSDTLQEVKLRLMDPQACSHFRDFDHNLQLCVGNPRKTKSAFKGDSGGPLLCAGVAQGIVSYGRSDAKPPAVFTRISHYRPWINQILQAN

[13] = Tmax in rat at 10 mg/kg, po; assay type: ADME, organism-based; settings: in vivo
Rattus norvegicus [14] = assay: Reversal of complete freund's adjuvant-induced thermal hyperalgesia in Sprague-Dawley rat model assessed as increase in paw withdrawal latency time at 1 to 30 mg/kg, po pre-exposed to thermal stimuli followed by CFA injection and subsequent compound administration measured after 30 to 180 mins; assay type: functional, organism-based
[15] = Volume of distribution at steady state in monkey at 10 mg/kg, po; assay type: ADME, organism-based, Macaca mulatta; settings: rhesus monkey, in vivo
[16] = Drug concentration in brain of Sprague-Dawley rat at 1 mg/kg, po; assay type: ADME, organism-based; settings: in vivo, read-out: Ct
[17] = molecular target: Prothrombin (Homo sapiens) (UniProt P00734); assay: Inhibition of thrombin (unknown origin) at 10 uM relative to control
[18] = Tmax in monkey at 10 mg/kg, po; assay type: ADME, organism-based, Macaca mulatta; settings: rhesus monkey, in vivo
[19] = Cmax in monkey at 10 mg/kg, po; assay type: ADME, organism-based, Macaca mulatta; design: dose 10 mg/kg, route oral; settings: rhesus monkey, in vivo
[20] = Tmax in dog at 10 mg/kg, po; assay type: ADME, organism-based, Canis lupus familiaris; settings: in vivo
[21] = Cmax in dog at 10 mg/kg, po; assay type: ADME, organism-based, Canis lupus familiaris; design: dose 10 mg/kg, route oral; settings: in vivo
Rattus norvegicus [22] = assay: Reversal of complete freund's adjuvant-induced thermal hyperalgesia in Sprague-Dawley rat model assessed as increase in paw withdrawal latency time at 30 mg/kg, po pre-exposed to thermal stimuli followed by CFA injection and subsequent compound administration; assay type: functional, organism-based; settings: TDE = time-dependent effect
[23] = Half life in monkey at 10 mg/kg, po; assay type: ADME, organism-based, Macaca mulatta; settings: rhesus monkey, in vivo
[24] = molecular target: Plasminogen (Homo sapiens) (UniProt P00747); assay: Inhibition of plasmin (unknown origin) at 10 uM relative to control
Chain of Plasminogen (Homo sapiens) (P00747 97-580 limits assumed): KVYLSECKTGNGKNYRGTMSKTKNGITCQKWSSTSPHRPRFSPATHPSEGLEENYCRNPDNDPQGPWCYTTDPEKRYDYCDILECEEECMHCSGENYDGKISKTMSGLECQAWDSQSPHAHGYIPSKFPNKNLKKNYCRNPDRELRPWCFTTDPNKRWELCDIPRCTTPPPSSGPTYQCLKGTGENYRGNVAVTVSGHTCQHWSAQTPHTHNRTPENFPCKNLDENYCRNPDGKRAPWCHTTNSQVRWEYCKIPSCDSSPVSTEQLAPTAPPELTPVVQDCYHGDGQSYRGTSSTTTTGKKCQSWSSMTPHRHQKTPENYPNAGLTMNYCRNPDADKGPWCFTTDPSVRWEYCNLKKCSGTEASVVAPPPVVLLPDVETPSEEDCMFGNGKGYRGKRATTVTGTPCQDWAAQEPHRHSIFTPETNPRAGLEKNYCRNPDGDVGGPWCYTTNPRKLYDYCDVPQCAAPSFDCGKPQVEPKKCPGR
Chain of Plasminogen (Homo sapiens) (P00747 581-810 limits assumed): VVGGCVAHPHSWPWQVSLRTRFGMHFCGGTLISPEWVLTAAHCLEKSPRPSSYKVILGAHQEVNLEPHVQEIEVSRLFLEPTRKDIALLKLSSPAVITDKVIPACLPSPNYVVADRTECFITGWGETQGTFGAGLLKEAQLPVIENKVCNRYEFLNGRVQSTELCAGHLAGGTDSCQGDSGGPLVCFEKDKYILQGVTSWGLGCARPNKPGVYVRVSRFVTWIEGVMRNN

Homo sapiens = organism: Homo sapiens; assay: Inhibition of elastase (unknown origin) at 10 uM relative to control

half-life [2]: 6.82 h | inhibition [3]: 0% | concentration [4]: 3540 nM | Cmax [5]: 710 ng/mL | bioavailability [6]: 79% | bioavailability [7]: 45% | inhibition (Tryptase (Homo sapiens)): 2% | concentration [8]: 519 nM | inhibition [10]: 6% | Vdss [12]: 1.22 L/kg | pIC50 (Cannabinoid receptor 2): < 5.00 | inhibition (Chymase (Homo sapiens)): 11% | Tmax [13]: 1.75 h | Vdss [15]: 0.429 L/kg | concentration [16]: 142 nM | inhibition [17]: -1% | Tmax [18]: 2.67 h | Cmax [19]: 5300 ng/mL | Tmax [20]: 2 h | Cmax [21]: 2860 ng/mL | half-life [23]: 4.62 h | inhibition [24]: 4% | inhibition (Homo sapiens): 4%
Structure (SMILES): O=C(c1ccc2c(ccn2-c2ccc(F)cc2)c1)N1CC(N2CCN(C(=O)c3nccs3)CC2)C1
ED50 (Rattus norvegicus [1]): 3 mg/kg | Activity (Rattus norvegicus [9]): 108.4 nmol/g | Activity (Rattus norvegicus [11]): 19.28 nmol/g | Activity (Rattus norvegicus [14]): Active | Activity (Rattus norvegicus [22]): Tde
